US11753378B2, “Ketamine compounds and processes for making and using them” (Zevra Therapeutics, Inc., priority 2021, dated 2023)

Experiments:
[1] = Pharmacokinetics of ketamine and norketamine in plasma after oral gavage; details: for norketamine exposure relative to ketamine exposure compared to unconjugated ketamine / release of ketamine compared to unconjugated ketamine: in words; for release of ketamine compared to unconjugated ketamine: administered orally
[2] = Pharmacokinetics of ketamine and norketamine in plasma after intranasal administration
NMDA receptor = details: cited from earlier work
[3] = analyte ketamine, oral, mean conjugate parameter/mean comparator parameter
[4] = analyte norketamine, oral, mean conjugate parameter/mean comparator parameter
[5] = oral gavage, ketamine % parameter/norketamine % parameter

CCOC(=O)CN(C)C(=O)c1ccc[n+](COC(=O)N(C)C2(c3ccccc3Cl)CCCCC2=O)c1.[Cl-] (racemic) [9b, KTM-CO2CH2-nicotinoyl-Sar(Et)]
% AUC0-4 hr, relative oral bioavailability of ketamine vs study comparator (Ketamine HCl) [1, 3]: 123%
% Cmax, relative oral bioavailability of ketamine vs study comparator (Ketamine HCl) [1, 3]: 124%
% AUC0-4 hr, relative oral bioavailability of norketamine vs study comparator (Ketamine HCl) [1, 4]: 62.7%
% Cmax, relative oral bioavailability of norketamine vs study comparator (Ketamine HCl) [1, 4]: 66.9%
% Exposure Ratio Ketamine:Norketamine, AUC0-4 hr [1, 5]: 1.96
% Exposure Ratio Ketamine:Norketamine, Cmax [1, 5]: 1.85
norketamine exposure relative to ketamine exposure compared to unconjugated ketamine ([1]; oral): reduced norketamine exposure relative to ketamine exposure
% AUC0-1 hr, relative intranasal bioavailability of ketamine vs study comparator (Ketamine HCl) ([2]; analyte ketamine, intranasal, mean conjugate parameter/mean comparator parameter): 68.1%
% Cmax, relative intranasal bioavailability of ketamine vs study comparator (Ketamine HCl) ([2]; analyte ketamine, intranasal, mean conjugate parameter/mean comparator parameter, 10k: time course stopped at 0.5 hours): 62.0%
% AUC0-1 hr, relative intranasal bioavailability of norketamine vs study comparator (Ketamine HCl) ([2]; analyte norketamine, intranasal, mean conjugate parameter/mean comparator parameter): 39.5%
% Cmax, relative intranasal bioavailability of norketamine vs study comparator (Ketamine HCl) ([2]; analyte norketamine, intranasal, mean conjugate parameter/mean comparator parameter, 10k: time course stopped at 0.5 hours): 37.1%
% Exposure Ratio PO:IN, Cmax ([2]; ketamine % parameter PO/ketamine % parameter IN): 2.00
% Exposure Ratio PO:IN, AUC ([2]; ketamine % parameter PO/ketamine % parameter IN, AUC0-4 h for PO and AUC0-1 h for IN): 1.80

CN[C@]1(c2ccccc2Cl)CCCCC1=O (single isomer, unassigned) [S(+) isomer, reference compound]
NMDA receptor antagonist potency relative to the R(−) isomer (NMDA receptor; background statement): approximately three to four times that of the R(−) isomer

CN(C(=O)OCOC(=O)c1ccncc1)C1(c2ccccc2Cl)CCCCC1=O.Cl (stereo not shown) [3b, Isonicotinate-CH2OCO-KTM HCl]
norketamine exposure relative to ketamine exposure compared to unconjugated ketamine ([1]; oral): reduced norketamine exposure relative to ketamine exposure

CC(C)[C@H](NC(=O)c1ccc[n+](COC(=O)N(C)C2(c3ccccc3Cl)CCCCC2=O)c1)C(=O)O (stereo partly shown) [10d, KTM-CO2CH2-nicotinoyl-Val]
norketamine exposure relative to ketamine exposure compared to unconjugated ketamine ([1]; oral): reduced norketamine exposure relative to ketamine exposure

CC[C@H](C)[C@H](NC(=O)c1ccc[n+](COC(=O)N(C)C2(c3ccccc3Cl)CCCCC2=O)c1)C(=O)O (stereo partly shown) [10e, KTM-CO2CH2-nicotinoyl-Ile]
norketamine exposure relative to ketamine exposure compared to unconjugated ketamine ([1]; oral): reduced norketamine exposure relative to ketamine exposure

CN(C(=O)OC[n+]1cccc(C(=O)N2CCC[C@H]2C(=O)O)c1)C1(c2ccccc2Cl)CCCCC1=O (stereo partly shown) [10f, KTM-CO2CH2-nicotinoyl-Pro]
norketamine exposure relative to ketamine exposure compared to unconjugated ketamine ([1]; oral): reduced norketamine exposure relative to ketamine exposure

CN(C(=O)OC[n+]1cccc(C(=O)N[C@@H](CCCCN)C(=O)O)c1)C1(c2ccccc2Cl)CCCCC1=O (stereo partly shown) [10g, KTM-CO2CH2-nicotinoyl-Lys]
release of ketamine compared to unconjugated ketamine [1]: extended or delayed release

CN(C(=O)OC[n+]1cccc(C(=O)N[C@@H](CCC(N)=O)C(=O)O)c1)C1(c2ccccc2Cl)CCCCC1=O (stereo partly shown) [10k, KTM-CO2CH2-nicotinoyl-Gln]
norketamine exposure relative to ketamine exposure compared to unconjugated ketamine ([1]; oral): reduced norketamine exposure relative to ketamine exposure

CSCC[C@H](NC(=O)c1ccc[n+](COC(=O)N(C)C2(c3ccccc3Cl)CCCCC2=O)c1)C(=O)O (stereo partly shown) [10s, KTM-CO2CH2-nicotinoyl-Met]
norketamine exposure relative to ketamine exposure compared to unconjugated ketamine ([1]; oral): reduced norketamine exposure relative to ketamine exposure

CN(CC(=O)O)C(=O)c1cc[n+](COC(=O)N(C)C2(c3ccccc3Cl)CCCCC2=O)cc1 (stereo not shown) [11b, KTM-CO2CH2-isonicotinoyl-Sar]
release of ketamine compared to unconjugated ketamine [1]: extended or delayed release
norketamine exposure relative to ketamine exposure compared to unconjugated ketamine ([1]; oral): reduced norketamine exposure relative to ketamine exposure

CC(C)[C@H](NC(=O)c1ccc[n+](COC(=O)N(C)[C@]2(c3ccccc3Cl)CCCCC2=O)c1)C(=O)O [S-10d, (S)-KTM-CO2CH2-nicotinoyl-Val]
norketamine exposure relative to ketamine exposure compared to unconjugated ketamine ([1]; oral): reduced norketamine exposure relative to ketamine exposure

NC1(c2ccccc2Cl)CCCCC1=O (stereo not shown) [norketamine]
NMDA receptor antagonist potency compared to ketamine (NMDA receptor; statement in words): less potent antagonist
